From patent US9566261B2 (priority 2013, dated 2017)

Test system: lithium-pilocarpine treated rats
Assay: Morris water maze using pilocarpine-induced status epilepticus (SE)
Assay type: in vivo
Excerpt: To assess spatial memory and learning in lithium-pilocarpine treated animals and to identify novel compounds that might ameliorate cognitive deficits and neuronal loss associated with pilocarpine-induced status epilepticus (SE). Morris water maze has been used extensively in the study of learning and memory. This test uses a round pool of water in which an escape platform is submerged beneath the surface. The task is to find the hidden platform using only extra maze visual cues (Morris, 1984). Learning can be assessed by quantifying the time that an animal takes to find the platform (latency) over a number of independent trials. […]
Twenty four hours prior to pilocarpine administration, rats were weighed and given lithium chloride (127 mg/kg; i.p.). On the next day, they received pilocarpine hydrochloride (50 mg/kg; i.p.) and were monitored carefully for behavioral seizures. […] All animals were observed and scored for seizure severity for an additional 1.5 hr. […] In our spatial learning protocol rats, received 4 training trials per day wherein the outcome measure evaluated was their ability to find the hidden platform. […] On each of the trials, rats were placed in the water facing the wall at one of the 4 randomly determined starting locations (north, west, east or south) and allowed 120 sec to find the platform. […]

C[C@H](OC(N)=O)[C@@H](O)c1ccccc1Cl [Compound 1, 1-(2-chlorophenyl)-(S)-1-hydroxypropyl-(S)-2-carbamate]
average time to find the escape platform (latency) (65 mg/kg i.p. 15 minutes after the first stage 3 seizure, vs pilocarpine alone group, FIG. 3): significant difference in the Pilo+Compound 1 group as compared to the pilocarpine alone group
mortality (125 mg/kg administered 30 min after the first convulsive seizure): death of all animals
